Data as given in article PMC9078697, “Discovery and preliminary SAR of 14-aryloxy-andrographolide derivatives as antibacterial agents with immunosuppressant activity” (RSC Advances, 2018).

Columns and labels:
Type in all cases: cell-based
E. faecalis = test: Bacteriostatic screening (growth, OD630) against E. faecalis; conditions: for IC50: 24 h, IC50 generated when inhibition at 250 μM was higher than 80%
Method: (§1) The strategy in this study was to submit these synthesized compounds to a preliminary screening test against E. coli, S. aureus and E. faecalis (ciprofloxacin was used as a reference compound; see Table 1). […] The tested compound or ciprofloxacin (positive drug) was dissolved in DMSO and diluted with LB liquid medium into a stock solution containing 20% DMSO before use; the stock solution of the carrier was 20% DMSO in LB liquid medium. All the experiments, including blank controls, were performed in triplicate. Bacteriostatic screening was performed by applying a modified protocol of the National Committee on Clinical Laboratory Standards (NCCLS).[29] Briefly, E. coli, S. aureus and E. faecalis cells (American Type Culture Collection, ATCC) were grown in LB plate medium for one passage, then seeded in LB liquid medium and cultured at 37 °C for 12 h. After being diluted 1000 times, 190 μL diluted cells were aliquoted to 96-well plates; then, 10 μL stock solution of carrier or a gradient amount of the tested compound or the positive compound, ciprofloxacin, were added; the final concentration of DMSO was 1% in all wells. The blank controls contained 1% DMSO and LB medium but no bacterial cells.

S. aureus = test: Bacteriostatic screening (growth, OD630) against S. aureus; conditions: for inhibition rate SA (symbol /): at 250 μM of tested compound
Method: as §1

E. coli = test: Bacteriostatic screening (growth, OD630) against E. coli; conditions: for inhibition rate EC (symbol /): at 250 μM of tested compound
Method: as §1

[1] = at 250 μM of the tested compound
[2] = at 250 μM of the tested compound, 250 µM

| Molecule | IC50 (E. faecalis) [µM] | inhibition rate (%) SA (S. aureus; [1]) | inhibition rate (%) EC (E. coli; [1]) | inhibition rate EC (symbol /) (E. coli) | inhibition rate (%) SA (S. aureus; [2]) | other results |
| --- | --- | --- | --- | --- | --- | --- |
| C=C1CCC2C(C)(CO)C(O)CCC2(C)C1CC=C1C(=O)OCC1Oc1ccc(C#N)cc1 (stereo not drawn) [6b10, (14β)-(4′-Cyano)phenoxy-andrographolide] | 72.1 ± 9.4 | (29) % | (39) % | – | – | – |
| (14β)-(2′-Nitro)phenoxy-3,19-acetonylidene andrographolide [5b6] | – | – | – | / (“/”represents no inhibition or lower than 10% inhibition rate at 250 μM of tested compound) | – | inhibition rate (%) EF (E. faecalis; [1]): 43%; inhibition rate SA (symbol /) (S. aureus): / (“/”represents no inhibition or lower than 10% inhibition rate at 250 μM of tested compound) |
| (14β)-(4′-Cyano)phenoxy-3,19-acetonylidene andrographolide [5b10] | – | (22) % | (20) % | – | – | inhibition rate (%) EF (E. faecalis; [1]): (46) % |
| (14α)-(2′-Carboxy ethyl ester-4′-nitro)phenoxy-andrographolide [6a1] | 72.2 ± 9.2 | (10) % | – | / (“/”represents no inhibition or lower than 10% inhibition rate at 250 μM of tested compound) | – | – |
| C=C1CCC2C3(C)COC(C)(C)OC3CCC2(C)C1CC=C1C(=O)OCC1Oc1ccc([N+](=O)[O-])cc1OC (stereo not drawn) [5b3, (14β)-(2′-Methoxy-4′-nitro)phenoxy-3,19-acetonylidene andrographolide] | – | – | – | / (“/”represents no inhibition or lower than 10% inhibition rate at 250 μM of tested compound) | (16) % | inhibition rate (%) EF (E. faecalis; [2]): (19) % |
| C=C1CCC2C3(C)COC(C)(C)OC3CCC2(C)C1CC=C1C(=O)OCC1Oc1cccnc1[N+](=O)[O-] (stereo not drawn) [5a15, (14α)-(2′-Nitro-pyridinyl-3′-oxy)-3,19-acetonylidene andrographolide] | 25.5 ± 1.5 | – | (13) % | – | (11) % | – |
| C=C1CCC2C3(C)COC(C)(C)OC3CCC2(C)C1CC=C1C(=O)OCC1Oc1ccnc2ccccc12 (stereo not drawn) [5a16, (14α)-(Quinolyl-4′-oxy)-3,19-acetonylidene andrographolide] | 16.9 ± 5.9 | (14) % | – | / (“/”represents no inhibition or lower than 10% inhibition rate at 250 μM of tested compound) | – | – |
| C=C1CCC2C(C)(CO)C(O)CCC2(C)C1CC=C1C(=O)OCC1Oc1ccc([N+](=O)[O-])cc1OC (stereo not drawn) [6a3, (14α)-(2′-Methoxy-4′-nitro)phenoxy-andrographolide] | 113 ± 14.3 | – | – | – | (17) % | inhibition rate (%) EC (E. coli; [2]): (31) % |
| C=C1CCC2C(C)(CO)C(O)CCC2(C)C1CC=C1C(=O)OCC1Oc1cccc([N+](=O)[O-])c1 (stereo not drawn) [6b7, (14β)-(3′-Nitro)phenoxy-andrographolide] | 17.8 ± 4.2 | 26% | – | / (“/”represents no inhibition or lower than 10% inhibition rate at 250 μM of tested compound) | – | – |
| C=C1CC[C@H]2[C@@](C)(CCC(=O)[C@@]2(C)CO[Si](C)(C)C(C)(C)C)[C@@H]1C/C=C1/C(=O)OC[C@@H]1Oc1cccc2cccnc12 [8b2, (14β)-(quinolyl-8′-oxy)-3-keto-19-(t-butyldimethylsilyloxy)andrographolide] | – | – | – | – | – | inhibition at 250 µM (E. faecalis; Enterococcus faecalis, at 250 μM of the tested compound, read-out: inhibition rate (%) EF): 71%; inhibition at 250 µM (S. aureus; Staphylococcus aureus, at 250 μM of the tested compound, read-out: inhibition rate (%) SA): 28%; inhibition at 250 µM (E. coli; Escherichia coli, at 250 μM of the tested compound, read-out: inhibition rate (%) EC): 25% |
| C=C1CCC2C(C)(CO)C(O)CCC2(C)C1CC=C1C(=O)OCC1Oc1cccnc1[N+](=O)[O-] (stereo not drawn) [6a15, (14α)-(2′-Nitro-pyridinyl-3′-oxy)andrographolide] | 56.7 ± 5.5 | – | (14) % | – | (13) % | – |
| O=C(O)c1cn(C2CC2)c2cc(N3CCNCC3)c(F)cc2c1=O [Ciprofloxacin, reference compound] | – | – | – | – | – | IC50 (E. faecalis; Enterococcus faecalis): 2.3 ± 0.6 µM; IC50 (S. aureus; Staphylococcus aureus, 24 h, IC50 generated when inhibition at 250 μM was higher than 80%): 0.4 ± 0.06 µM; IC50 (E. coli; Escherichia coli, 24 h, IC50 generated when inhibition at 250 μM was higher than 80%): 0.31 ± 0.06 µM |
| C=C1CCC2C(C)(CO)C(O)CCC2(C)C1CC=C1C(=O)OCC1Oc1ccc(C(=O)OCC)cc1 (stereo not drawn) [6a9, (14α)-(4′-Carboxyethyl ester)phenoxy-andrographolide] | 38.3 ± 5.9 | – | – | / (“/”represents no inhibition or lower than 10% inhibition rate at 250 μM of tested compound) | – | inhibition rate SA (symbol /) (S. aureus): / (“/”represents no inhibition or lower than 10% inhibition rate at 250 μM of tested compound) |
| C=C1CCC2C(C)(CO)C(O)CCC2(C)C1CC=C1C(=O)OCC1Oc1ccccc1C(=O)OCC (stereo not drawn) [6a8, (14α)-(2′-Carboxyethyl ester)phenoxy-andrographolide] | 83.3 ± 8.3 | (17) % | (21) % | – | – | – |
| C=C1CCC2C3(C)COC(C)(C)OC3CCC2(C)C1CC=C1C(=O)OCC1Oc1ccc(C(=O)OCC)cc1 (stereo not drawn) [5a9, (14α)-(4′-Carboxyethyl ester)phenoxy-3,19-acetonylidene andrographolide] | – | (10) % | – | / (“/”represents no inhibition or lower than 10% inhibition rate at 250 μM of tested compound) | – | inhibition rate (%) EF (E. faecalis; [1]): (45) % |
| C=C1CCC2C(C)(CO)C(O)CCC2(C)C1CC=C1C(=O)OCC1Oc1ccc([N+](=O)[O-])cc1F (stereo not drawn) [6b2, (14β)-(2′-Fluoro-4′-nitro)phenoxy-andrographolide] | 24.4 ± 3.2 | – | – | – | (25) % | inhibition rate (%) EC (E. coli; [2]): (42) % |
| C=C1CCC2C3(C)COC(C)(C)OC3CCC2(C)C1CC=C1C(=O)OCC1Oc1ccc([N+](=O)[O-])c(OC)c1 (stereo not drawn) [5b5, (14β)-(3′-Methoxy-4′-nitro)phenoxy-3,19-acetonylidene andrographolide] | – | – | – | – | (32) % | inhibition rate (%) EF (E. faecalis; [2]): (34) %; inhibition rate (%) EC (E. coli; [2]): (18) % |
| C=C1CCC2C(C)(CO)C(O)CCC2(C)C1CC=C1C(=O)OCC1Oc1ccnc2ccccc12 (stereo not drawn) [6a16, (14α)-(Quinolyl-4′-oxy)andrographolide] | 65.8 ± 13.5 | (22) % | – | / (“/”represents no inhibition or lower than 10% inhibition rate at 250 μM of tested compound) | – | – |
| C=C1CCC2C(C)(CO)C(O)CCC2(C)C1CC=C1C(=O)OCC1Oc1ccc([N+](=O)[O-])c(F)c1 (stereo not drawn) [6a4, (14α)-(3′-Fluoro-4′-nitro)phenoxy-andrographolide] | – | – | – | / (“/”represents no inhibition or lower than 10% inhibition rate at 250 μM of tested compound) | – | inhibition rate (%) EF (E. faecalis; [1]): (44) %; inhibition rate SA (symbol /) (S. aureus): / (“/”represents no inhibition or lower than 10% inhibition rate at 250 μM of tested compound) |
| C=C1CCC2C(C)(CO)C(O)CCC2(C)C1CC=C1C(=O)OCC1Oc1cccc(OC)c1 (stereo not drawn) [6b13, (14β)-(3′-Methoxy)phenoxy-andrographolide] | 138 ± 5.4 | 13% | 15% | – | – | – |
| C=C1CCC2C3(C)COC(C)(C)OC3CCC2(C)C1CC=C1C(=O)OCC1Oc1ccc([N+](=O)[O-])cc1OC (stereo not drawn) [5a3, (14α)-(2′-Methoxy-4′-nitro)phenoxy-3,19-acetonylidene andrographolide] | – | – | (21) % | – | (18) % | inhibition rate (%) EF (E. faecalis; [2]): (60) % |
| C=C1CCC2C3(C)COC(C)(C)OC3CCC2(C)C1CC=C1C(=O)OCC1Oc1ccc([N+](=O)[O-])cc1C(=O)OC (stereo not drawn) [5a1, (14α)-(2′-Carboxymethyl ester-4′-nitro)phenoxy-3,19-acetonylidene andrographolide] | 51.2 ± 11.6 | – | – | / (“/”represents no inhibition or lower than 10% inhibition rate at 250 μM of tested compound) | (14) % | – |
